From patent EP0051819A2, “Tetra-substituted benzene derivatives, their preparation and pharmaceutical preparations containing them” (F. HOFFMANN-LA ROCHE & CO. Aktiengesellschaft, priority 1980, dated 1982)
Values after ≈ are worked out from the molar mass of the structure shown. Read-outs that look alike come from different tables or passages of the source.

Experiments:
Rhinovirus HGP = assay: Antiviral activity: inhibition of viral cytopathogenic effect (C.P.E.) in HeLa cell culture; assay type: cell-based; conditions: for IC50: Enterovirus, HeLa, 48 h; for antivirale Aktivität: qualitative statement in the description, no virus named
Procedure: (§1) Eine Suspension von HeLa-Zellen (6 x 10^4) wurde mit Rhinovirus HGP (3 x 10^3 Plaque-bildende Einheiten, PFU) gemischt und auf eine Mikrotestplatte gebracht, die die zu testenden Verbindungen in zunehmender Verdünnung enthielten. Die Zellen wurden dann in Eagle's Minimalnährlösung, die 2% Kalbsserum, 1% Tryptosephosphatbrühe, 100 ug/ml Streptomycin und 20 Einheiten/ml Penicillin G enthielt, kultiviert. Der virale zytopathogenische Effekt (C.P.E.) und die Cytotoxizität wurden mikroskopisch nach 2 Tagen Kultivierung bei 33°C beobachtet. Die antivirale Aktivität (IC50) der Testverbindungen ist diejenige Konzentration,.bei der C.P.E. um 50% gegenüber der Kontrollkultur gehemmt war. Die Cytotoxizität ist als Minimalkonzentration angegeben, bei der toxische Symptome beobachtet wurden.(cytotoxische Dosis).

[1] = Cytotoxicity in HeLa cells, observed microscopically in the antiviral test; assay type: cell-based; conditions: human, hela cells
Procedure: as §1

[2] = concentration inhibiting C.P.E. by 50% versus control culture, HeLa cells, 2 days at 33°C, read-out: IC50
[3] = minimal concentration at which toxic symptoms were observed (cytotoxische Dosis), 2 days at 33°C, read-out: Cytotoxizität

| IC50 (Rhinovirus HGP; [2]) | Structure (SMILES) | MCC at 48 h [1, 3] | antivirale Aktivität (Rhinovirus HGP) | IC50 (Rhinovirus HGP) | MCC at 48 h [1] |
| --- | --- | --- | --- | --- | --- |
| 0.3 µg/mL (≈ 0.803 µM) | CCOc1cc(OC)c(C(=O)NCc2ccc(OC)cc2)c(OC(C)=O)c1 [2-[(p-Anisyl-amino)carbonyl]-5-ethoxy-3-methoxypheny]acetat] | > 8 µg/mL | – | – | – |
| 0.03 to 0.1 µg/mL (≈ 0.108 to 0.361 µM) | COc1cc(O)c(C(=O)NCc2ccco2)c(OC)c1 [N-Furfuryl-2-hydroxy-4,6--dimethoxybenzamid] | > 8 µg/mL | – | – | – |
| 2.7 µg/mL (≈ 4.17 µM) | COc1ccc(CNC(=O)c2c(OC)cc(OC)cc2O[C@@H]2O[C@H](COC(C)=O)[C@@H](OC(C)=O)[C@H](OC(C)=O)[C@H]2OC(C)=O)cc1 [2-[(p-Anisylamino)carbonyl]-3,5-dimethoxyphenyl-tetra-O-acetyl-ß-D-glucopyranosid] | > 10 µg/mL | – | – | – |
| 0.01 µg/mL (≈ 0.0291 µM) | C=CCOc1ccc(CNC(=O)c2c(O)cc(OC)cc2OC)cc1 [N-[p-(Allyloxy)benzyl]-2-hydroxy-4,6-dimethoxybenzamid] | 8 µg/mL | – | – | – |
| 0.3 µg/mL (≈ 0.492 µM) | C=CCOc1ccc(CNC(=O)c2c(OC)cc(OC)cc2OC(=O)CCCCCCCCCCCCCCCCC)cc1 [2-{[[p-(Allyloxy)benzyl]amino]carbonyl}-3,5-dimethoxyphenyl-octadecanoat] | > 8 µg/mL | – | – | – |
| 0.001 µg/mL (≈ 0.00269 µM) | CCOc1cc(OC)c(C(=O)CCc2ccc(OC)cc2)c(OC(C)=O)c1 [5-Ethoxy-3-methoxy-2-[3-(4-methoxyphenyl)-propionyl]phenyl-acetat] | > 8 µg/mL | – | – | – |
| 0.01 µg/mL (≈ 0.0303 µM) | COc1cc(O)c(C(=O)NCc2ccc(N(C)C)cc2)c(OC)c1 [N-[p-(Dimethylamino)benzyl]-2--hydroxy-4,6-dimethoxybenzamid] | > 8 µg/mL | – | – | – |
| 0.002 µg/mL (≈ 0.006 µM) | COc1cc(O)c(C(=O)NCc2ccc(SC)cc2)c(OC)c1 [2-Hydroxy-4,6-dimethoxy-N-[p--(methylthio)benzyl]benzamid] | > 8 µg/mL | besonders starke antivirale Aktivität | – | – |
| 0.01 µg/mL (≈ 0.0288 µM) | CCOc1cc(O)c(C(=S)NCc2ccc(OC)cc2)c(OC)c1 [4-Ethoxy-2-hydroxy-6-methoxy-N-(p-methoxybenzyl)-thiobenzamid] | > 8 µg/mL | – | – | – |
| 0.3 µg/mL (≈ 0.989 µM) | COc1cc(O)c(C(=O)NCc2ccc(O)cc2)c(OC)c1 [2-Hydroxy-N-(p-hydroxybenzyl)--4,6-dimethoxybenzamid] | > 8 µg/mL | – | – | – |
| 0.01 µg/mL (≈ 0.023 µM) | CCOc1cc(OC)c(C(=O)CCc2ccc(OC)cc2)c(OC(=O)c2ccccc2)c1 [5-Ethoxy-3-methoxy-2-[3-(4-methoxyphenyl)propionyl]phenyl-benzoat] | > 8 µg/mL | – | – | – |
| 0.3 to 0.9 µg/mL (≈ 0.763 to 2.29 µM) | COc1cc(O)c(C(=O)NCc2ccc(OCc3ccccc3)cc2)c(OC)c1 [N-[p-(Benzyloxy)benzyl]-2--hydroxy-4,6-dimethoxybenzamid] | > 8 µg/mL | – | – | – |
| 2.7 µg/mL (≈ 5.48 µM) | CCOc1cc(OC)c(C(=O)CCc2ccc(OC)cc2)c(O[C@@H]2O[C@H](CO)[C@@H](O)[C@H](O)[C@H]2O)c1 [5-Ethoxy-3-methoxy-2-[3-(4-methoxyphenyl)propionyl]phenyl-ß-D-glucopyranosid] | > 10 µg/mL | – | – | – |
| 0.03 to 0.1 µg/mL (≈ 0.104 to 0.348 µM) | COc1cc(O)c(C(=O)NCc2ccccc2)c(OC)c1 [N-Benzyl-2-hydroxy-4,6-dimethoxy-benzamid] | > 8 µg/mL | – | – | – |
| 0.01 to 0.03 µg/mL (≈ 0.0311 to 0.0932 µM) | COc1cc(O)c(C(=O)NCc2ccc(Cl)cc2)c(OC)c1 [N-(p-Chlorobenzyl)-2-hydroxy--4,6-dimethoxybenzamid] | > 2.4 µg/mL | – | – | – |
| 2.7 µg/mL (≈ 5.63 µM) | COc1ccc(CNC(=O)c2c(OC)cc(OC)cc2O[C@@H]2O[C@H](CO)[C@@H](O)[C@H](O)[C@H]2O)cc1 [2-[(p-Anisyl-amino)carbonyl]-3,5-dimethoxyphenyl-ß-D-glucopyranosid] | > 10 µg/mL | – | – | – |

Second part, the compound before the results:

| Structure (SMILES) | IC50 (Rhinovirus HGP; [2]) | MCC at 48 h [1, 3] | antivirale Aktivität (Rhinovirus HGP) | IC50 (Rhinovirus HGP) | MCC at 48 h [1] |
| --- | --- | --- | --- | --- | --- |
| COc1ccc(CCC(=O)c2c(O)cc(SC)cc2OC)cc1 [1-[2-Hydroxy-6-methoxy-4-(methylthio)-phenyl]-3-(4-methoxyphenyl)-1-propanon] | 0.1 µg/mL (≈ 0.301 µM) | 1 µg/mL | – | – | – |
| COc1cc(O)c(C(=O)NCc2cccs2)c(OC)c1 [2-Hydroxy-4,6-dimethoxy-N-(2--thenyl)benzamid] | 0.03 µg/mL (≈ 0.102 µM) | 8 µg/mL | – | – | – |
| COc1ccc(CCC(=O)c2c(O)cc(OC(C)C)cc2OC)cc1 [1-(2-Hydroxy-4-isopropoxy-6-methoxyphenyl)-3-(4-methoxyphenyl)-1-propanon] | 0.03 to 0.1 µg/mL (≈ 0.0871 to 0.29 µM) | 8 µg/mL | – | – | – |
| COc1ccc(CNC(=O)c2c(O)cc(OC)cc2OC)cc1 [2-Hydroxy-4,6-dimethoxy-N-(p-methoxybenzyl)benzamid] | 0.002 µg/mL (≈ 0.0063 µM) | 8 µg/mL | – | – | – |
| COc1cc(O)c(C(=O)NCc2ccc(OC)c(OC)c2)c(OC)c1 [2-Hydroxy-4,6-dimethoxy-N--(m,p-dimethoxybenzyl)benzamid] | 0.3 µg/mL (≈ 0.864 µM) | 8 µg/mL | – | – | – |
| CCCOc1cc(O)c(C(=O)CCc2ccc(OC)cc2)c(OC)c1 [1-(2-Hydroxy-6-methoxy-4-propoxyphenyl)-3-(4-methoxyphenyl)-1-propanon] | 0.004 to 0.01 µg/mL (≈ 0.0116 to 0.029 µM) | 2.7 µg/mL | – | – | – |
| CNC(=O)c1c(O)cc(OC)cc1OC [2-Hydroxy-4,6-dimethoxy-N--methylbenzamid] | 0.9 µg/mL (≈ 4.26 µM) | > 8 µg/mL | – | – | – |
| COc1cc(O)c(C(=O)CCc2ccc(C)o2)c(OC)c1 [1-(2-Hydroxy-4,6-dimethoxyphenyl)-3-(5-methyl-2-furyl)-l-propanon] | 0.9 µg/mL (≈ 3.1 µM) | > 8 µg/mL | – | – | – |
| COc1ccc(CNC(=O)c2c(OC)cc(OC)cc2OP(=O)(O)O)cc1 [2-[(p-Anisylamino)carbonyl]-3,5-dimethoxyphenyl-dihydrogenphosphat] | – | > 8 µg/mL | – | 0.006 to 0.01 µg/mL (≈ 0.0151 to 0.0252 µM) | – |
| COc1cc(O)c(C(=O)CCc2ccc3c(c2)OCO3)c(OC)c1 [1-(2-Hydroxy-4,6-dimethoxy-phenyl)-3-[3,4-(methylendioxy)-phenyl]-1-propanon] | 0.03 to 0.1 µg/mL (≈ 0.0908 to 0.303 µM) | > 8 µg/mL | – | – | – |
| COc1cc(O)c(C(=O)NCc2ccc[nH]2)c(OC)c1 [2-Hydroxy-4,6-dimethoxy-N-(2-pyrrolylmethyl)benzamid] | 2.7 µg/mL (≈ 9.77 µM) | > 8 µg/mL | – | – | – |
| CCOc1cc(O)c(C(=S)CCc2ccc(OC)cc2)c(OC)c1 [1-(4-Ethoxy-2-hydroxy-6-methoxyphenyl)-3-(4-methoxyphenyl)-1-propanthion] | 0.002 µg/mL (≈ 0.00577 µM) | – | besonders starke antivirale Aktivität | – | 2.7 µg/mL |
| COc1cc(O)c(C(=O)CCc2ccc(C)cc2)c(OC)c1 [1-(2-Hydroxy-4,6-dimethoxy-phenyl)-3-(4-methylphenyl)-1--propanon] | 0.01 to 0.03 µg/mL (≈ 0.0333 to 0.0999 µM) | > 8 µg/mL | – | – | – |
| COc1cc(O)c(C(=O)NCc2ccncc2)c(OC)c1 [2-Hydroxy-4,6-dimethoxy-N-[(4-pyridyl)methyl]benzamid] | 0.9 µg/mL (≈ 3.12 µM) | 8 µg/mL | – | – | – |
| CCOC(=O)Oc1cc(OC)cc(OC)c1C(=O)NCc1ccc(OC)cc1 | 0.1 µg/mL (≈ 0.257 µM) | > 8 µg/mL | – | – | – |
| CCCCOc1ccc(CNC(=O)c2c(O)cc(OC)cc2OC)cc1 [N-(p-Butoxybenzyl)-2-hydroxy--4,6-dimethoxybenzamid] | 0.3 µg/mL (≈ 0.835 µM) | 8 µg/mL | – | – | – |
| CCOc1cc(OC)c(C(=O)NCc2ccc(OC)cc2)c(OP(=O)(O)O)c1 [2--[(p-Anisylamino)carbonyl]-5-ethoxy-3-methoxyphenyl-dihydrogenphosphat] | – | > 8 µg/mL | besonders starke antivirale Aktivität | 0.01 to 0.03 µg/mL (≈ 0.0243 to 0.0729 µM) | – |
| COc1ccc(CCC(=NO)c2c(O)cc(OC)cc2OC)cc1 [1-(2-Hydroxy--4,6-dimethoxyphenyl)-3-(4-methoxyphenyl)-1-propanon-oxim] | – | > 10 µg/mL | – | – | – |
